Source: ChEMBL document CHEMBL1201861, “Genomics of Drug Sensitity in Cancer screening data, Wellcome Trust Sanger Institute”

Columns and labels:
EPLC-272H = assay: cells; assay type: functional, cell-based; conditions: Homo sapiens
Description: SANGER: Inhibition of human EPLC-272H cell growth in a cell viability assay.

EW-22 = assay: cells; assay type: functional, cell-based; conditions: Homo sapiens;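 note: growth inhibition of the EW-22 cell line, measured with a cell viability readout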
Description: SANGER: Inhibition of human EW-22 cell growth in a cell viability assay.

HT55 = assay: cells; assay type: functional, cell-based, Homo sapiens; conditions: Homo sapiens, HT55;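 note: cell viability readout measuring growth inhibition of human HT55 cells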
Description: SANGER: Inhibition of human HT55 cell growth in a cell viability assay.

HuO9 = assay: cells; assay type: functional, cell-based, Homo sapiens; conditions: Homo sapiens, HuO9;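 note: growth inhibition of HuO9 cells, read out with a cell viability assay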
Description: SANGER: Inhibition of human HuO9 cell growth in a cell viability assay.

NCI-H2291 = assay: cells; assay type: functional, cell-based; conditions: Homo sapiens
Description: SANGER: Inhibition of human NCI-H2291 cell growth in a cell viability assay.

NCI-H460 = assay: cells; assay type: functional, cell-based, Homo sapiens; conditions: Homo sapiens, NCI-H460;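 note: cell viability assay scoring growth inhibition of human NCI-H460 cells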
Description: SANGER: Inhibition of human NCI-H460 cell growth in a cell viability assay.

NCI-H630 = assay: cells; assay type: functional, cell-based, Homo sapiens; conditions: Homo sapiens, NCI-H630;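 note: growth inhibition of NCI-H630 cells, read out with a cell viability assay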
Description: SANGER: Inhibition of human NCI-H630 cell growth in a cell viability assay.

RH-18 = assay: cells; assay type: functional, cell-based; conditions: Homo sapiens, Rh18;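 note: growth inhibition of human RH-18 cells, read out with a cell viability assay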
Description: SANGER: Inhibition of human RH-18 cell growth in a cell viability assay.

SW 1116 = assay: cells; assay type: functional, cell-based; conditions: Homo sapiens;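 note: growth inhibition of SW1116 cells, read out with a cell viability assay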
Description: SANGER: Inhibition of human SW1116 cell growth in a cell viability assay.

A549 = assay: cells; assay type: functional, cell-based; conditions: Homo sapiens;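 note: growth inhibition of A549 cells, read out with a cell viability assay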
Description: SANGER: Inhibition of human A549 cell growth in a cell viability assay.

BT-549 = assay: cells; assay type: functional, cell-based; conditions: Homo sapiens
Description: SANGER: Inhibition of human BT-549 cell growth in a cell viability assay.

YH-13 = assay: cells; assay type: functional, cell-based; conditions: Homo sapiens;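 note: cell viability readout of growth suppression in the human YH-13 cell line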
Description: SANGER: Inhibition of human YH-13 cell growth in a cell viability assay.

Kasumi 1 = assay: cells; assay type: functional, cell-based; conditions: Homo sapiens;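 note: growth inhibition of human Kasumi-1 cells, read out by a cell viability assay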
Description: SANGER: Inhibition of human KASUMI-1 cell growth in a cell viability assay.

MEL-JUSO = assay: cells; assay type: functional, cell-based, Homo sapiens; conditions: Homo sapiens, MEL-JUSO;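 note: growth inhibition of human MEL-JUSO cells, read out with a cell viability assay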
Description: SANGER: Inhibition of human MEL-JUSO cell growth in a cell viability assay.

NCI-H1703 = assay: cells; assay type: functional, cell-based, Homo sapiens; conditions: Homo sapiens, NCI-H1703;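 note: growth inhibition of NCI-H1703 cells, read out via a cell viability assay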
Description: SANGER: Inhibition of human NCI-H1703 cell growth in a cell viability assay.

COR-L279 = assay: SANGER: Inhibition of human COR-L279 cell growth in a cell viability assay.; assay type: functional, cell-based
EB-3 = assay: cells; assay type: functional, cell-based; conditions: Homo sapiens;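 note: human EB-3 cells, growth inhibition read out via a cell viability assay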
Description: SANGER: Inhibition of human EB-3 cell growth in a cell viability assay.

EVSA-T = assay: cells; assay type: functional, cell-based, Homo sapiens; conditions: Homo sapiens, EVSA-T;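 note: growth inhibition of EVSA-T cells, read out with a cell viability assay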
Description: SANGER: Inhibition of human EVSA-T cell growth in a cell viability assay.

G-361 = assay: cells; assay type: functional, cell-based, Homo sapiens; conditions: Homo sapiens, G-361
GDM-1 = assay: cells; assay type: functional, cell-based; conditions: Homo sapiens;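 note: cell viability readout used to measure growth inhibition of human GDM-1 cells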
Description: SANGER: Inhibition of human GDM-1 cell growth in a cell viability assay.

HCC1599 = assay: cells; assay type: functional, cell-based; conditions: Homo sapiens;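 note: growth inhibition of HCC1599 cells, read out in a cell viability assay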
Description: SANGER: Inhibition of human HCC1599 cell growth in a cell viability assay.

IM-9 = assay: SANGER: Inhibition of human IM-9 cell growth in a cell viability assay.; assay type: functional, cell-based
IST-SL2 = assay: cells; assay type: functional, cell-based; conditions: Homo sapiens;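 note: growth inhibition of human IST-SL2 cells, read out by a cell viability assay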
Description: SANGER: Inhibition of human IST-SL2 cell growth in a cell viability assay.

JIYOYE = assay: cells; assay type: functional, cell-based; conditions: Homo sapiens
Description: SANGER: Inhibition of human JiyoyeP-2003 cell growth in a cell viability assay.

K052 = assay: cells; assay type: functional, cell-based; conditions: Homo sapiens;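 note: Read-out from a cell viability assay, IC50 reflecting suppression of K052 cell growth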
Description: SANGER: Inhibition of human K052 cell growth in a cell viability assay.

KARPAS-422 = assay: cells; assay type: functional, cell-based; conditions: Homo sapiens
Description: SANGER: Inhibition of human KARPAS-422 cell growth in a cell viability assay.

KMS-12-PE = assay: cells; assay type: functional, cell-based; conditions: Homo sapiens;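 note: growth inhibition of human KMS-12-PE cells, measured with a cell viability assay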
Description: SANGER: Inhibition of human KMS-12-PE cell growth in a cell viability assay.

L-540 = assay: cells; assay type: functional, cell-based; conditions: Homo sapiens;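 note: growth inhibition of the human L-540 cell line, read out with a viability assay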
Description: SANGER: Inhibition of human L-540 cell growth in a cell viability assay.

LOUCY = assay: cells; assay type: functional, cell-based; conditions: Homo sapiens;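 note: growth inhibition of human LOUCY cells, read out with a cell viability assay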
Description: SANGER: Inhibition of human LOUCY cell growth in a cell viability assay.

LU-165 = assay: cells; assay type: functional, cell-based; conditions: Homo sapiens
Description: SANGER: Inhibition of human LU-165 cell growth in a cell viability assay.

MC-CAR = assay: cells; assay type: functional, cell-based; conditions: Homo sapiens;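 note: growth inhibition of the human MC-CAR cell line, read out by a cell viability assay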
Description: SANGER: Inhibition of human MC-CAR cell growth in a cell viability assay.

MDA-MB-134-VI = assay: cells; assay type: functional, cell-based; conditions: Homo sapiens
Description: SANGER: Inhibition of human MDA-MB-134-VI cell growth in a cell viability assay.

MRK-nu-1 = assay: cells; assay type: functional, cell-based; conditions: Homo sapiens;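 note: cell viability assay measuring growth suppression of human MRK-nu-1 cells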
Description: SANGER: Inhibition of human MRK-nu-1 cell growth in a cell viability assay.

NCI-H1436 = assay: cells; assay type: functional, cell-based; conditions: Homo sapiens;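 note: growth suppression of human NCI-H1436 cells, determined with a cell viability readout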
Description: SANGER: Inhibition of human NCI-H1436 cell growth in a cell viability assay.

NCI-H1522 = assay: cells; assay type: functional, cell-based; conditions: Homo sapiens;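 note: growth inhibition of NCI-H1522 cells, read out with a cell viability assay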
Description: SANGER: Inhibition of human NCI-H1522 cell growth in a cell viability assay.

NCI-H1694 = assay: cells; assay type: functional, cell-based; conditions: Homo sapiens;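 note: cell viability assay measuring inhibition of growth in human NCI-H1694 cells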
Description: SANGER: Inhibition of human NCI-H1694 cell growth in a cell viability assay.

NCI-H1882 = assay: cells; assay type: functional, cell-based; conditions: Homo sapiens;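 note: growth inhibition of the cell line, determined with a viability assay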
Description: SANGER: Inhibition of human NCI-H1882 cell growth in a cell viability assay.

NCI-H2141 = assay: cells; assay type: functional, cell-based; conditions: Homo sapiens;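 note: growth inhibition of human NCI-H2141 cells, read out with a cell viability assay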
Description: SANGER: Inhibition of human NCI-H2141 cell growth in a cell viability assay.

NCI-H524 = assay: cells; assay type: functional, cell-based; conditions: Homo sapiens;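 note: growth inhibition of human NCI-H524 cells, read out through a cell viability assay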
Description: SANGER: Inhibition of human NCI-H524 cell growth in a cell viability assay.

NCI-H64 = assay: cells; assay type: functional, cell-based; conditions: Homo sapiens;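 note: growth inhibition of NCI-H64 cells, read out with a cell viability assay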
Description: SANGER: Inhibition of human NCI-H64 cell growth in a cell viability assay.

NCI-H889 = assay: cells; assay type: functional, cell-based; conditions: Homo sapiens;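 note: cell growth inhibition of the cell line, read out with a viability assay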
Description: SANGER: Inhibition of human NCI-H889 cell growth in a cell viability assay.

SNU-16 = assay: cells; assay type: functional, cell-based; conditions: Homo sapiens;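 note: growth inhibition of human SNU-16 cells, determined with a cell viability readout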
Description: SANGER: Inhibition of human NCI-SNU-16 cell growth in a cell viability assay.

Raji = assay: cells; assay type: functional, cell-based; conditions: Homo sapiens;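 note: cell viability assay measuring inhibition of Raji cell growth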
Description: SANGER: Inhibition of human Raji cell growth in a cell viability assay.

SCLC-21H = assay: cells; assay type: functional, cell-based; conditions: Homo sapiens;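 note: growth inhibition of cultured human SCLC-21H cells, read out with a cell viability assay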
Description: SANGER: Inhibition of human SCLC-21H cell growth in a cell viability assay.

SK-MM-2 = assay: cells; assay type: functional, cell-based; conditions: Homo sapiens;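 note: growth inhibition of human SK-MM-2 cells, read out with a cell viability assay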
Description: SANGER: Inhibition of human SK-MM-2 cell growth in a cell viability assay.

SNU-C1 = assay: cells; assay type: functional, cell-based; conditions: Homo sapiens;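 note: growth inhibition of SNU-C1 human cells, read out by a cell viability assay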
Description: SANGER: Inhibition of human SNU-C1 cell growth in a cell viability assay.

ST486 = assay: SANGER: Inhibition of human ST486 cell growth in a cell viability assay.; assay type: functional, cell-based
SU-DHL-1 = assay: SANGER: Inhibition of human SU-DHL-1 cell growth in a cell viability assay.; assay type: functional, cell-based
SUP-T1 = assay: cells; assay type: functional, cell-based; conditions: Homo sapiens;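 note: growth inhibition of human SUP-T1 cells, read out as cell viability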
Description: SANGER: Inhibition of human SUP-T1 cell growth in a cell viability assay.

23132-87 = assay: cells; assay type: functional, cell-based, Homo sapiens; conditions: Homo sapiens
Description: SANGER: Inhibition of human 23132-87 cell growth in a cell viability assay.

BC-3 = assay: cells; assay type: functional, cell-based; conditions: Homo sapiens;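 note: cell viability assay measuring growth inhibition of human BC-3 cells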
Description: SANGER: Inhibition of human BC-3 cell growth in a cell viability assay.

BL-41 = assay: cells; assay type: functional, cell-based; conditions: Homo sapiens;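 note: growth inhibition of human BL-41 cells, read out with a cell viability assay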
Description: SANGER: Inhibition of human BL-41 cell growth in a cell viability assay.

BL-70 = assay: SANGER: Inhibition of human BL-70 cell growth in a cell viability assay.; assay type: functional, cell-based
CA46 = assay: cells; assay type: functional, cell-based; conditions: Homo sapiens;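 note: growth inhibition of human CA46 cells, read out by a cell viability assay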
Description: SANGER: Inhibition of human CA46 cell growth in a cell viability assay.

CAL-148 = assay: cells; assay type: functional, cell-based; conditions: Homo sapiens
Description: SANGER: Inhibition of human CAL-148 cell growth in a cell viability assay.

TE-15 = assay: cells; assay type: functional, cell-based; conditions: Homo sapiens;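 note: cell viability readout of growth inhibition in TE-15 cells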
Description: SANGER: Inhibition of human TE-15 cell growth in a cell viability assay.

UACC-812 = assay: cells; assay type: functional, cell-based; conditions: Homo sapiens
Description: SANGER: Inhibition of human UACC-812 cell growth in a cell viability assay.

WSU-NHL = assay: cells; assay type: functional, cell-based; conditions: Homo sapiens;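 note: growth inhibition of human WSU-NHL cells, read out with a cell viability assay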
Description: SANGER: Inhibition of human WSU-NHL cell growth in a cell viability assay.

YT = assay: cells; assay type: functional, cell-based; conditions: Homo sapiens
Description: SANGER: Inhibition of human YT cell growth in a cell viability assay.

CESS = assay: SANGER: Inhibition of human CESS cell growth in a cell viability assay.; assay type: functional, cell-based
CMK = assay: cells; assay type: functional, cell-based; conditions: Homo sapiens;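 note: growth inhibition of CMK cells, read out as cell viability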
Description: SANGER: Inhibition of human CMK cell growth in a cell viability assay.

Compound: COc1ccc(C2=N[C@@H](c3ccc(Cl)cc3)[C@@H](c3ccc(Cl)cc3)N2C(=O)N2CCNC(=O)C2)c(OC(C)C)c1 [NUTLIN-3]
- IC50 (EPLC-272H): > 8 µM
- IC50 (EW-22): > 8 µM
- IC50 (HT55): > 8 µM
- IC50 (HuO9): > 8 µM
- IC50 (NCI-H2291): > 8 µM
- IC50 (NCI-H460): 4.91 µM
- IC50 (NCI-H630): > 8 µM
- IC50 (RH-18): 4.28 µM
- IC50 (SW 1116): > 8 µM
- IC50 (A549): 3.64 µM
- IC50 (BT-549): > 8 µM
- IC50 (YH-13): > 8 µM

Compound: O=C(c1cc(Cc2n[nH]c(=O)c3ccccc23)ccc1F)N1CCN(C(=O)C2CC2)CC1 [OLAPARIB]
- IC50 (EPLC-272H): > 5 µM
- IC50 (EW-22): 4.36 µM
- IC50 (HT55): > 5 µM
- IC50 (HuO9): > 5 µM
- IC50 (Kasumi 1): 4.4 µM
- IC50 (MEL-JUSO): > 5 µM
- IC50 (NCI-H1703): > 5 µM
- IC50 (NCI-H2291): > 5 µM
- IC50 (NCI-H630): > 5 µM
- IC50 (RH-18): > 5 µM
- IC50 (SW 1116): > 5 µM
- IC50 (A549): > 5 µM
- IC50 (YH-13): > 5 µM

Compound: COC(=O)CNC(=O)C(=O)OC
- IC50 (COR-L279): > 4000 µM
- IC50 (EB-3): 49.6 µM
- IC50 (EVSA-T): > 4000 µM
- IC50 (G-361): 1180 µM
- IC50 (GDM-1): 121 µM
- IC50 (HCC1599): 129 µM
- IC50 (HT55): 554 µM
- IC50 (HuO9): 589 µM
- IC50 (IM-9): > 4000 µM
- IC50 (IST-SL2): 157 µM
- IC50 (JIYOYE): 291 µM
- IC50 (K052): 171 µM
- IC50 (KARPAS-422): 162 µM
- IC50 (Kasumi 1): 122 µM
- IC50 (KMS-12-PE): 628 µM
- IC50 (L-540): 239 µM
- IC50 (LOUCY): 10.3 µM
- IC50 (LU-165): 804 µM
- IC50 (MC-CAR): 509 µM
- IC50 (MDA-MB-134-VI): > 4000 µM
- IC50 (MEL-JUSO): 275 µM
- IC50 (MRK-nu-1): 1800 µM
- IC50 (NCI-H1436): > 4000 µM
- IC50 (NCI-H1522): > 4000 µM
- IC50 (NCI-H1694): 291 µM
- IC50 (NCI-H1703): 1660 µM
- IC50 (NCI-H1882): 134 µM
- IC50 (NCI-H2141): 351 µM
- IC50 (NCI-H460): 159 µM
- IC50 (NCI-H524): 2760 µM
- IC50 (NCI-H630): 3880 µM
- IC50 (NCI-H64): 273 µM
- IC50 (NCI-H889): > 4000 µM
- IC50 (SNU-16): > 4000 µM
- IC50 (Raji): 609 µM
- IC50 (SCLC-21H): > 4000 µM
- IC50 (SK-MM-2): 101 µM
- IC50 (SNU-C1): 2100 µM
- IC50 (ST486): 71 µM
- IC50 (SU-DHL-1): 125 µM
- IC50 (SUP-T1): 143 µM
- IC50 (23132-87): > 4000 µM
- IC50 (BC-3): 305 µM
- IC50 (BL-41): 54.9 µM
- IC50 (BL-70): 15.9 µM
- IC50 (CA46): 96 µM
- IC50 (CAL-148): > 4000 µM
- IC50 (TE-15): 218 µM
- IC50 (UACC-812): 3010 µM
- IC50 (WSU-NHL): > 4000 µM
- IC50 (YT): 23.4 µM
- IC50 (CESS): 60.8 µM
- IC50 (CMK): 126 µM
